Source: patent publication US10710978B2, “STK4 inhibitors for treatment of hematologic malignancies” (Dana-Farber Cancer Institute, Inc., priority 2015, dated 2020)
Read-outs that look alike come from different tables or passages of the source.

What was measured:
Assay in all cases: KiNativ assay
Format in all cases: binding
Settings in all cases: H929 live cell
CLK2 = CLK2 (Homo sapiens (Human), UniProt P49760)
Procedure: (§1) Biochemical IC50s of the compounds of the present disclosure against various kinases were measured in a KiNativ assay. Compounds were screened in duplicate at 10 μM in H929 live cell. IC50 was measured via Mass spectroscopy (MS).

MAP3K4 = MAP3K4 (Homo sapiens (Human), UniProt Q9Y6R4)
Procedure: as §1

PFTAIRE1 = PFTAIRE1 (Homo sapiens (Human), UniProt O94921)
Procedure: as §1

TBK1 = TBK1 (Homo sapiens (Human), UniProt Q9UHD2)
Procedure: as §1

RSKL1 = RSKL1 (Homo sapiens (Human), UniProt Q96S38)
Procedure: as §1

MASTL = MASTL (Homo sapiens (Human), UniProt Q96GX5)
Procedure: as §1

JNK1, JNK2, JNK3 = system: JNK1, JNK2, JNK3
Procedure: as §1

MST4 = system: MST4
Procedure: as §1

p38d, p38g = system: p38d, p38g
Procedure: as §1

TYK2 domain2 = TYK2 domain2 (Homo sapiens (Human), UniProt P29597)
Procedure: as §1

SGK3 = SGK3 (Homo sapiens (Human), UniProt Q96BR1)
SGK3, sequence (Q96BR1 whole entry): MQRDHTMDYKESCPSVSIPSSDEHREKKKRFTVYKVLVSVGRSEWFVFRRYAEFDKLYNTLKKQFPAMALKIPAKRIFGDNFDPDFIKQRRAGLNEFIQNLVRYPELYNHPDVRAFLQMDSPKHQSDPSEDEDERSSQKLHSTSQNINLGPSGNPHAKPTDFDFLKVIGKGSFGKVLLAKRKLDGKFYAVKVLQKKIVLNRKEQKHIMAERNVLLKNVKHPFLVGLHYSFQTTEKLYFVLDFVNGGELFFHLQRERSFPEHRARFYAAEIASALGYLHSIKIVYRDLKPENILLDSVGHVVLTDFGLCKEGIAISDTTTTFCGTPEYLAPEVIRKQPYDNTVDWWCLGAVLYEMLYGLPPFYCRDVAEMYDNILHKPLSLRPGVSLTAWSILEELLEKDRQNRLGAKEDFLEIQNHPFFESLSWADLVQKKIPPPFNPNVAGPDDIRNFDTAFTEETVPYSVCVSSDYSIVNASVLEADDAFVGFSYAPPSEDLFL
Procedure: as §1

Erk2 = Erk2 (Homo sapiens (Human), UniProt P28482)
Erk2, sequence (P28482 whole entry): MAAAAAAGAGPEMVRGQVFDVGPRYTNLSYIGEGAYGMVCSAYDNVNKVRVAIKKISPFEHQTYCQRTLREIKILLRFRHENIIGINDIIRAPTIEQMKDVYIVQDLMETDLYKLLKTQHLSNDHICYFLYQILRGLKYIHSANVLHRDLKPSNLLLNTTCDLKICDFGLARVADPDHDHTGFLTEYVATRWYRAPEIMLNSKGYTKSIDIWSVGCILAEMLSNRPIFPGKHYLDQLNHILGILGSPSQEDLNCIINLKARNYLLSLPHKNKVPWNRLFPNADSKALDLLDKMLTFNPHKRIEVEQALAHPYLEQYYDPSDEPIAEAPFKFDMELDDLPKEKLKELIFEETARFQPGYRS
Procedure: as §1

PLK1 = PLK1 (Homo sapiens (Human), UniProt P53350)
PLK1, sequence (P53350 whole entry): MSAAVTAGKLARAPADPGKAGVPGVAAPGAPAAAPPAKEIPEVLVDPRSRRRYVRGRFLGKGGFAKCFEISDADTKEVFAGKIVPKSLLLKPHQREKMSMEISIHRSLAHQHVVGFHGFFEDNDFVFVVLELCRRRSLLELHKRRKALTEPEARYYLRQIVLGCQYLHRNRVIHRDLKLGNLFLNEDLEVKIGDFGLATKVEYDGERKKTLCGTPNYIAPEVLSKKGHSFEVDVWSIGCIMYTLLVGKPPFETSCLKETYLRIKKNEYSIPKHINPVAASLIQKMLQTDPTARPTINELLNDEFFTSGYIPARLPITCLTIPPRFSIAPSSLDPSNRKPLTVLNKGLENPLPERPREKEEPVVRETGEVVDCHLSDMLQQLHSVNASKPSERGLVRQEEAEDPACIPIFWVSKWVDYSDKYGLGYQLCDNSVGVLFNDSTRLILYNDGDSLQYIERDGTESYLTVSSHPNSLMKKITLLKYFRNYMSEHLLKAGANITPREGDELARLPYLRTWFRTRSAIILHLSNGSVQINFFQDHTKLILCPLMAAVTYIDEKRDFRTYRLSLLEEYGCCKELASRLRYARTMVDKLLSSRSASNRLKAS
Procedure: as §1

FRAP = FRAP (Homo sapiens (Human), UniProt P42345)
Procedure: as §1

OSR1 = OSR1 (Homo sapiens (Human), UniProt O95747)
OSR1, sequence (O95747 whole entry): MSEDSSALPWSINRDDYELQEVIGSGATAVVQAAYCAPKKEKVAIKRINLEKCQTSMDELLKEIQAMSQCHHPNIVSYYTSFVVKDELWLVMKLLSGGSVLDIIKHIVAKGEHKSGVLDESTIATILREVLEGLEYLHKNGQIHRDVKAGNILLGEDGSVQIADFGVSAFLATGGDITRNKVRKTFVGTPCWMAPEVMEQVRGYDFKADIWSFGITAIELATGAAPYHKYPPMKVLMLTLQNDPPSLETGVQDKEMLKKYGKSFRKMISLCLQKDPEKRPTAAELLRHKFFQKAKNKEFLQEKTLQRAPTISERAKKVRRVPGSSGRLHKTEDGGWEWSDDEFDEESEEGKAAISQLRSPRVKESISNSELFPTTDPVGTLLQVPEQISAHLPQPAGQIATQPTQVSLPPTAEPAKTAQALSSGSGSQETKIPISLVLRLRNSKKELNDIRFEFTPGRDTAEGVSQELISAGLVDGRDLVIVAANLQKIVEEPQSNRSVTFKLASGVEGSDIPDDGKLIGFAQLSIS
Procedure: as §1

SRPK1 = SRPK1 (Homo sapiens (Human), UniProt Q96SB4)
SRPK1, sequence (Q96SB4 whole entry): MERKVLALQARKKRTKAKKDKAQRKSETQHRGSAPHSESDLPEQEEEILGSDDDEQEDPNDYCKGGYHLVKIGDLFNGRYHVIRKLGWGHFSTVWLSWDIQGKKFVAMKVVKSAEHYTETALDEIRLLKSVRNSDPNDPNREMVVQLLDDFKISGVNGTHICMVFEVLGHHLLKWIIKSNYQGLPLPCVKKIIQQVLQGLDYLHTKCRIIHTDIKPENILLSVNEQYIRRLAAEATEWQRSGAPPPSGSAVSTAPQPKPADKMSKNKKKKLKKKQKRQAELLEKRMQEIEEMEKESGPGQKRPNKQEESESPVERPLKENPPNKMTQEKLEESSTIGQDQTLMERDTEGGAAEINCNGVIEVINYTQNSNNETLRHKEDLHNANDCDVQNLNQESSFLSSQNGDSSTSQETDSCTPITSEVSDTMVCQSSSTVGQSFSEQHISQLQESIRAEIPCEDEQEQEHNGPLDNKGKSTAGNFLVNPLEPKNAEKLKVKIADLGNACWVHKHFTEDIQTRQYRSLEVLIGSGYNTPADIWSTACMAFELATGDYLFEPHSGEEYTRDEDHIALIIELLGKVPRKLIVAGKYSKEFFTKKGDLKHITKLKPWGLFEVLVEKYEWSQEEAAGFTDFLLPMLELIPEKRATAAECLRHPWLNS
Procedure: as §1

CaMK2d = CaMK2d (Homo sapiens (Human), UniProt Q13557)
Procedure: as §1

MARK2, MARK3 = system: MARK2, MARK3
Procedure: as §1

TLK1 = TLK1 (Homo sapiens (Human), UniProt Q9UKI8)
Procedure: as §1

PIP5K3 = PIP5K3 (Homo sapiens (Human), UniProt Q9Y2I7)
Procedure: as §1

MAP2K6 = MAP2K6 (Homo sapiens (Human), UniProt P52564)
Procedure: as §1

eEF2K = eEF2K (Homo sapiens (Human), UniProt O00418)
Procedure: as §1

FER = FER (Homo sapiens (Human), UniProt P16591)
Procedure: as §1

AurA = AurA (Homo sapiens (Human), UniProt O14965)
AurA, sequence (O14965 whole entry): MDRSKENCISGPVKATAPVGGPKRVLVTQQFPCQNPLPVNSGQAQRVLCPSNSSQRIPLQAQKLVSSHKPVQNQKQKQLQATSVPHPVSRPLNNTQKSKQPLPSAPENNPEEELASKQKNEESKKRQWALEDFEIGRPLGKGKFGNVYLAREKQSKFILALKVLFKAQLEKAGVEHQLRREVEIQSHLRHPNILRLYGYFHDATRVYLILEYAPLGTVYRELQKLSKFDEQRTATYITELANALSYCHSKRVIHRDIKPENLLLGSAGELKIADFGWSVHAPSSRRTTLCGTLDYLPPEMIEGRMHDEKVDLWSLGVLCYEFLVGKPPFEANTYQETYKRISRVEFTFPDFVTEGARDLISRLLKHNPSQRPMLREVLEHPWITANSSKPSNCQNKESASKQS
Procedure: as §1

GCK = GCK (Homo sapiens (Human), UniProt Q12851)
Procedure: as §1

CDC2 = CDC2 (Homo sapiens (Human), UniProt P06493)
Procedure: as §1

ILK = ILK (Homo sapiens (Human), UniProt Q13418)
Procedure: as §1

PI4KB = PI4KB (Homo sapiens (Human), UniProt Q9UBF8)
PI4KB, sequence (Q9UBF8 whole entry): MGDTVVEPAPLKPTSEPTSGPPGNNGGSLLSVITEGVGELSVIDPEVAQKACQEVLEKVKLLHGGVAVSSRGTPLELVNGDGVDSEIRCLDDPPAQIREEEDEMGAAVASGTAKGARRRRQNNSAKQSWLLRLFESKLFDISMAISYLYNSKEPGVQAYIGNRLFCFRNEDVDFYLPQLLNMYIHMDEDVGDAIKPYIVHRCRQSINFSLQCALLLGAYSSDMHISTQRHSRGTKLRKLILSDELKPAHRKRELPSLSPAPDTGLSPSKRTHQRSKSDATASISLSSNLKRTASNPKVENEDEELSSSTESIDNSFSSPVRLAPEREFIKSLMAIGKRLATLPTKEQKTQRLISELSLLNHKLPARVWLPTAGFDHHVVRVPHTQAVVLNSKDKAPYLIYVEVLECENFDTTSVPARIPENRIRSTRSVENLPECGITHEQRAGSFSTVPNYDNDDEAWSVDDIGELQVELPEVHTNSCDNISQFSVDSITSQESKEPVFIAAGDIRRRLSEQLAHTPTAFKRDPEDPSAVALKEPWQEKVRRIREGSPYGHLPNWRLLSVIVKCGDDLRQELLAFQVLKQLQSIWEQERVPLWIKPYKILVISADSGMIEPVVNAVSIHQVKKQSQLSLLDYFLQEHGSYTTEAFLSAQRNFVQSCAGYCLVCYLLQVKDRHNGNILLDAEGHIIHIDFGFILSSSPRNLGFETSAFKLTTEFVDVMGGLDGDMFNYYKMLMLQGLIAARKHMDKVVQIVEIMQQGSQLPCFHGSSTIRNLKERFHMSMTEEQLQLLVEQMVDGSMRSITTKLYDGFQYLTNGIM
Procedure: as §1

MST3 = MST3 (Homo sapiens (Human), UniProt Q9Y6E0)
Procedure: as §1

PITSLRE = system: PITSLRE
Procedure: as §1

MAP2K4 = MAP2K4 (Homo sapiens (Human), UniProt P45985)
MAP2K4, sequence (P45985 whole entry): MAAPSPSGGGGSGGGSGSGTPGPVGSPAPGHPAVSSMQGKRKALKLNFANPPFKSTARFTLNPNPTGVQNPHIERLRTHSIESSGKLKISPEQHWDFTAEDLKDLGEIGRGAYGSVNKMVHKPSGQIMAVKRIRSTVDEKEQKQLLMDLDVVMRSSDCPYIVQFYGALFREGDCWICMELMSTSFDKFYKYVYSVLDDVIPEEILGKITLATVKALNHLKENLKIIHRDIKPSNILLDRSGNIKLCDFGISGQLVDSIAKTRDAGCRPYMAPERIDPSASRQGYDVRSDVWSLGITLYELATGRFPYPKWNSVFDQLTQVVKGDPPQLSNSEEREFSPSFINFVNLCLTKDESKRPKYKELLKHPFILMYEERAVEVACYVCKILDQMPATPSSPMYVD
Procedure: as §1

DGKH = DGKH (Homo sapiens (Human), UniProt Q86XP1)
Procedure: as §1

CK1a = CK1a (Homo sapiens (Human), UniProt P48729)
Procedure: as §1

[1] = range class, read-out: % inhibition

CLK2, sequence (P49760 whole entry): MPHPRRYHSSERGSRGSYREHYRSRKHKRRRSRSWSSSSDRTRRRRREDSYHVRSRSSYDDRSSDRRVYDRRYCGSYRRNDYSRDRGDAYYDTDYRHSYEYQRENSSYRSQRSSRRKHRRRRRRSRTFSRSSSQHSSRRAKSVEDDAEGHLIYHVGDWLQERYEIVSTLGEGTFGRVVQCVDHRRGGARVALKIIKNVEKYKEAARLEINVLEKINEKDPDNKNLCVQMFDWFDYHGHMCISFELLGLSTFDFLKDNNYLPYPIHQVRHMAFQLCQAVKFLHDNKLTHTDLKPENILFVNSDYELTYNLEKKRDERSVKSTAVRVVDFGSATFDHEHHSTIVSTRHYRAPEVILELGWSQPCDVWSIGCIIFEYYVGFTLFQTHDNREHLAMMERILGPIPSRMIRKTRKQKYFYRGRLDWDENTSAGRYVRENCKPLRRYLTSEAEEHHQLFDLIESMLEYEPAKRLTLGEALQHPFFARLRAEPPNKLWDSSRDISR

## COc1cc(NS(=O)(=O)C2CC2)ccc1-c1cnc(N)c(-c2ccc3c(c2)CCNC3=O)c1 [Compound I-50, N-(4-(6-amino-5-(1-oxo-1,2,3,4-tetrahydroisoquinolin-6-yl)pyridin-3-yl)-3-methoxyphenyl) cyclopropanesulfonamide]
CLK2; [1]
  inhibition at 10 µM: 0%
CLK2; read-out:
  inhibition at 10 µM: 10.8%
MAP3K4; [1]
  inhibition at 10 µM: 0%
MAP3K4; read-out: inhibition (10 μM)
  inhibition at 10 µM: 9.5%
PFTAIRE1; [1]
  inhibition at 10 µM: 0%
PFTAIRE1; read-out: inhibition (10 μM)
  inhibition at 10 µM: -2.4%
TBK1; [1]
  inhibition at 10 µM: 0%
TBK1; read-out: inhibition (10 μM)
  inhibition at 10 µM: 31.4%
RSKL1; [1]
  inhibition at 10 µM: 0%
RSKL1; read-out: inhibition (10 μM)
  inhibition at 10 µM: 3.2%
MASTL; [1]
  inhibition at 10 µM: 0%
MASTL; read-out: inhibition (10 μM)
  inhibition at 10 µM: -1.4%
JNK1, JNK2, JNK3; 10 μM, range class
  % inhibition: 0.0%
JNK1, JNK2, JNK3
  inhibition (10 μM): 26.8%
MST4; 10 μM, range class
  % inhibition: 0.0%
MST4
  inhibition (10 μM): −68.1%
p38d, p38g; 10 μM, range class
  % inhibition: 0.0%
p38d, p38g
  inhibition (10 μM): 7.4%
TYK2 domain2; [1]
  inhibition at 10 µM: 0%
TYK2 domain2; read-out: inhibition (10 μM)
  inhibition at 10 µM: -21%
SGK3; [1]
  inhibition at 10 µM: 0%
SGK3; read-out: inhibition (10 μM)
  inhibition at 10 µM: 11.2%
Erk2; [1]
  inhibition at 10 µM: 0%
Erk2; read-out: inhibition (10 μM)
  inhibition at 10 µM: 34.5%
PLK1; [1]
  inhibition at 10 µM: 0%
PLK1; read-out: inhibition (10 μM)
  inhibition at 10 µM: -11.1%
FRAP; [1]
  inhibition at 10 µM: 0%
FRAP; read-out: inhibition (10 μM)
  inhibition at 10 µM: 21.5%
OSR1; [1]
  inhibition at 10 µM: 0%
OSR1; read-out: inhibition (10 μM)
  inhibition at 10 µM: 16.6%
SRPK1; [1]
  inhibition at 10 µM: 0%
SRPK1; read-out: inhibition (10 μM)
  inhibition at 10 µM: -9.2%
CaMK2d; [1]
  inhibition at 10 µM: 0%
CaMK2d; read-out: inhibition (10 μM)
  inhibition at 10 µM: 15.9%
MARK2, MARK3; 10 μM, range class
  % inhibition: 0.0%
MARK2, MARK3
  inhibition (10 μM): 0.4%
TLK1; [1]
  inhibition at 10 µM: 0%
TLK1; read-out: inhibition (10 μM)
  inhibition at 10 µM: -7.5%
PIP5K3; [1]
  inhibition at 10 µM: 75 to 90%
PIP5K3; read-out: inhibition (10 μM)
  inhibition at 10 µM: 79.7%
MAP2K6; [1]
  inhibition at 10 µM: 0%
MAP2K6; read-out: inhibition (10 μM)
  inhibition at 10 µM: 10.9%
eEF2K; [1]
  inhibition at 10 µM: 0%
eEF2K; read-out: inhibition (10 μM)
  inhibition at 10 µM: -1%
FER; [1]
  inhibition at 10 µM: 0%
FER; read-out: inhibition (10 μM)
  inhibition at 10 µM: 16.3%
AurA
  inhibition (10 μM): 11.9%
AurA; [1]
  inhibition at 10 µM: 0%
AurA; read-out: inhibition (10 μM)
  inhibition at 10 µM: 18%
GCK; [1]
  inhibition at 10 µM: > 90%
GCK; read-out: inhibition (10 μM)
  inhibition at 10 µM: 95.2%
CDC2; [1]
  inhibition at 10 µM: 0%
CDC2; read-out: inhibition (10 μM)
  inhibition at 10 µM: 13.7%
ILK; [1]
  inhibition at 10 µM: 0%
ILK; read-out: inhibition (10 μM)
  inhibition at 10 µM: -18.8%
PI4KB; [1]
  inhibition at 10 µM: 0%
PI4KB; read-out: inhibition (10 μM)
  inhibition at 10 µM: 0%
MST3; [1]
  inhibition at 10 µM: 0%
MST3; read-out: inhibition (10 μM)
  inhibition at 10 µM: 20%
PITSLRE; 10 μM, range class
  % inhibition: 0.0%
PITSLRE
  inhibition (10 μM): −27.6%
MAP2K4; [1]
  inhibition at 10 µM: 35 to 40%
MAP2K4; read-out: inhibition (10 μM)
  inhibition at 10 µM: 37.5%
DGKH; [1]
  inhibition at 10 µM: 0%
DGKH; read-out: inhibition (10 μM)
  inhibition at 10 µM: 6.3%
CK1a; [1]
  inhibition at 10 µM: 0%
CK1a; read-out: inhibition (10 μM)
  inhibition at 10 µM: -20.9%
